Test system: monkey model
Assay: Antihistaminic activity in a monkey model

For `CCOC(=O)N1CCC(=C2c3ccc(Cl)cc3CCc3cccnc32)CC1` [polymorph form 2 loratadine, ethyl 4-(8-chloro-5,6,-dihydro-11H-benzo[5,6]cyclohepta[1,2-b]pyridin-11-ylidene)-1-piperidene carboxylate], which Antihistaminic activity is on record?
Its Antihistaminic activity is “demonstrated”.

— patent US6335347B1, “Ethyl 4-(8-chloro-5,6-dihydro-11 H-benzo[5,6]cyclohepta[1,2-b]pyridin-11-ylidene)-1-piperidene carboxylate polymorph” (Schering Corporation, priority 1997, dated 2002)
